system: PC-3 cells; assay: PC-3 Oxygen Rate Consumption (OCR) Assay; type: cell-based; conditions: Homo sapiens, 0.05 h, medium with 2% FBS, OCR at 3-min post-injection normalized to % increase over DMSO-treated cells, concentration for half-maximal OCR increase, read-out: EC50-PC3-OCR-FBS-3min
Method: PC-3 Oxygen Rate Consumption (OCR) Assay Procedure:
One day before the assay, PC-3 cells were seeded at 2.5×10^4 cells/160 μL/well in a 96-well XFe96 cell plate, part of a FlexPak containing a cell plate and a cartridge (Agilent, Sunnyvale, CA). The cells were incubated overnight at 37° C. in a 5% CO2 and 90% humidity incubator with F12K culture medium (ThermoFisher Scientific/Invitrogen, Grand Island, NY) containing 10% FBS and 1% penicillin/streptomycin. On the day of the assay, the cells were washed twice with 300 µL/well Medium A [XF assay medium (Agilent) supplemented 10 mM glucose, 1 mM pyruvate, and 2% fetal bovine serum (FBS)], and incubated with 175 µL/well Media A for 1 hr in a 37° C., non-CO2 incubator prior to the measurement of cellular respiration. Compounds of interests were prepared in 1:2 serial dilutions with 100% DMSO and then further diluted into 8× working stock with Media A prior to being loaded to Injection Port A on a XFe96 Analyzer (Agilent). Six replicates were used for each treatment. The cartridge was calibrated in the XFe96 Analyzer 30 minute prior to the measurement of cellular respiration. Basal levels of OCR were measured three times, each using a “3-minute mixing/3-minute measurement” program. The compound effect was measured immediately after compound injection from Injection Port A, and OCR was monitored continuously 10 times, each time using a “1-minute mixing/2-minute measurement” program for a total of 30 minutes post compound injection. The level of OCR at 3-min post-injection was normalized to % increase over DMSO-treated cells. The concentration of compound required to reach the half-maximal OCR increase was defined as EC50 Table 2 contains PC3 OCR EC50 values for the compounds disclosed.

Structure (SMILES) | EC50 [µM]
O=C(NC12CC(C(F)(F)F)(C1)C2)c1ccc(C(F)(F)F)cc1NS(=O)(=O)c1ccccc1 [Example 38, 2-(phenylsulfonamido)-4-(trifluoromethyl)-N-(3-(trifluoromethyl)bicyclo[1.1.1]pentan-1-yl)benzamide] | 0.478
Cc1ncsc1CCS(=O)(=O)Nc1ccc(C(F)(F)F)cc1C(=O)NC12CCC(F)(CC1)CC2 [Example 201, N-(4-fluorobicyclo[2.2.2]octan-1-yl)-2-((2-(4-methylthiazol-5-yl)ethyl)sulfonamido)-5-(trifluoromethyl)benzamide] | 1.29
CC(C)(C)S(=O)(=O)Nc1ccc(C#N)cc1C(=O)NC12CC(c3ccccc3)(C1)C2 [Example 96, 5-cyano-2-((1,1-dimethylethyl)sulfonamido)-N-(3-phenylbicyclo[1.1.1]pentan-1-yl)benzamide] | 1.28
Cc1ccc(C(=O)NC23CC(C(F)(F)F)(C2)C3)c(NS(=O)(=O)c2ccncc2)c1 [Example 65, 4-methyl-2-(pyridine-4-sulfonamido)-N-(3-(trifluoromethyl)bicyclo[1.1.1]pentan-1-yl)benzamide] | 21.8
CC(C)(C)S(=O)(=O)c1ccc(S(=O)(=O)Nc2cc(F)ccc2C(=O)NC23CC(C(F)(F)F)(C2)C3)cc1 [Example 152, 2-((4-(tert-butylsulfonyl)phenyl)sulfonamido)-4-fluoro-N-(3-(trifluoromethyl)bicyclo[1.1.1]pentan-1-yl)benzamide] | 1.13
CS(=O)(=O)Nc1ccc(S(F)(F)(F)(F)F)cc1C(=O)NC1CC2CCC(C1)O2 (stereo not drawn) [Example 184, N-(8-oxabicyclo[3.2.1]octan-3-yl)-2-(methylsulfonamido)-5-(pentafluoro-λ^6-sulfanyl)benzamide] | 48.1
CC(C)(C)S(=O)(=O)Nc1ccc(Cl)cc1C(=O)NC12CC(C(F)(F)F)(C1)C2 [Example 84, 5-chloro-2-((1,1-dimethylethyl)sulfonamido)-N-(3-(trifluoromethyl)bicyclo[1.1.1]pentan-1-yl)benzamide] | 1.04
CC(C)(C)S(=O)(=O)Nc1ccc(C#N)cc1C(=O)NC12CCC(C#N)(CC1)CC2 [Example 123, 5-cyano-N-(4-cyanobicyclo[2.2.2]octan-1-yl)-2-((1,1-dimethylethyl)sulfonamido)benzamide] | 4.84
CC(C)S(=O)(=O)Nc1cc(C(F)(F)F)ccc1C(=O)NC12CC(C1)C2 [Example 55, N-(bicyclo[1.1.1]pentan-1-yl)-2-((1-methylethyl)sulfonamido)-4-(trifluoromethyl)benzamide] | 6.32
N#CC1(S(=O)(=O)Nc2ccc(F)cc2C(=O)NC23CC(C(F)(F)F)(C2)C3)CC1 [Example 242, 2-((1-cyanocyclopropane)-1-sulfonamido)-5-fluoro-N-(3-(trifluoromethyl)bicyclo[1.1.1]pentan-1-yl)benzamide] | 4.34
O=C(NC12CC(C(F)(F)F)(C1)C2)c1ccc(OC(F)(F)F)cc1NS(=O)(=O)N1CCS(=O)(=O)CC1 [Example 245, 2-((1,1-dioxidothiomorpholine)-4-sulfonamido)-4-(trifluoromethoxy)-N-(3-(trifluoromethyl)bicyclo[1.1.1]pentan-1-yl)benzamide] | 3.84
CS(=O)(=O)CCOc1ccc(S(=O)(=O)Nc2cc(C(F)(F)F)ccc2C(=O)NC23CC(C(F)(F)F)(C2)C3)cc1 [Example 115, 2-((4-(2-(methylsulfonyl)ethoxy)phenyl)sulfonamido)-4-(trifluoromethyl)-N-(3-(trifluoromethyl)bicyclo[1.1.1]pentan-1-yl)benzamide] | 12.6
COc1ccc(S(=O)(=O)Nc2cc(C(F)(F)F)ccc2C(=O)NC23CC(C(F)(F)F)(C2)C3)cc1 [Example 111, 2-((4-methoxyphenyl)sulfonamido)-4-(trifluoromethyl)-N-(3-(trifluoromethyl)bicyclo[1.1.1]pentan-1-yl)benzamide] | 0.811
CC1(S(=O)(=O)Nc2cc(C(F)(F)F)ccc2C(=O)NC23CC(C(F)(F)F)(C2)C3)CC1 [Example 63, 2-((1-methylcyclopropane)-1-sulfonamido)-4-(trifluoromethyl)-N-(3-(trifluoromethyl)bicyclo[1.1.1]pentan-1-yl)benzamide] | 0.937
NC(=O)c1ccc(S(=O)(=O)Nc2cc(C(F)(F)F)ccc2C(=O)NC23CC(c4ccccc4)(C2)C3)cc1 [Example 51, 2-((4-carbamoylphenyl)sulfonamido)-N-(3-phenylbicyclo[1.1.1]pentan-1-yl)-4-(trifluoromethyl)benzamide] | 28.8
O=C(NC12CC(C(F)(F)F)(C1)C2)c1ccc(C(F)(F)F)cc1NS(=O)(=O)c1ccc(-c2nnn[nH]2)cc1 [Example 159, 2-((4-(1H-tetrazol-5-yl)phenyl)sulfonamido)-4-(trifluoromethyl)-N-(3-(trifluoromethyl)bicyclo[1.1.1]pentan-1-yl)benzamide] | ≥ 200
CS(=O)(=O)Nc1ccc(C(F)(F)F)cc1C(=O)NC1CC2(CC(=O)C2)C1 [Example 195, 2-(methylsulfonamido)-N-(6-oxospiro[3.3]heptan-2-yl)-5-(trifluoromethyl)benzamide] | 67.5
Cn1cc(S(=O)(=O)Nc2cc(C(F)(F)F)ccc2C(=O)NC23CC(c4ccccc4)(C2)C3)cn1 [Example 39, 2-((1-methyl-1H-pyrazole)-4-sulfonamido)-N-(3-phenylbicyclo[1.1.1]pentan-1-yl)-4-(trifluoromethyl)benzamide] | 7.34
N#CC12CCC(NC(=O)c3cc(C(F)(F)F)ccc3NS(=O)(=O)N3CCCC3)(CC1)CC2 [Example 130, N-(4-cyanobicyclo[2.2.2]octan-1-yl)-2-(pyrrolidine-1-sulfonamido)-5-(trifluoromethyl)benzamide] | 4.68
CCS(=O)(=O)Nc1cc(C(F)(F)F)ccc1C(=O)NC12CCC(C#N)(CC1)CC2 [Example 133, N-(4-cyanobicyclo[2.2.2]octan-1-yl)-2-(ethylsulfonamido)-4-(trifluoromethyl)benzamide] | 14.7
CS(=O)(=O)Nc1c(F)cccc1C(=O)NC12CC(C(F)(F)F)(C1)C2 [Example 136, 3-fluoro-2-(methylsulfonamido)-N-(3-(trifluoromethyl)bicyclo[1.1.1]pentan-1-yl)benzamide] | ≥ 100
CC(C)S(=O)(=O)Nc1cc(C(F)(F)F)ccc1C(=O)NC12CC(c3ccccc3)(C1)C2 [Example 54, 2-((1-methylethyl)sulfonamido)-N-(3-phenylbicyclo[1.1.1]pentan-1-yl)-4-(trifluoromethyl)benzamide] | 1.22
CCCCS(=O)(=O)Nc1ccc(C(F)(F)F)cc1C(=O)NC12CCC(C#N)(CC1)CC2 [Example 127, 2-(butylsulfonamido)-N-(4-cyanobicyclo[2.2.2]octan-1-yl)-5-(trifluoromethyl)benzamide] | 2.41
CC(C)S(=O)(=O)Nc1ccc(C(F)(F)F)cc1C(=O)NC12CC(C(F)(F)F)(C1)C2 [Example 69, 2-((1-methylethyl)sulfonamido)-5-(trifluoromethyl)-N-(3-(trifluoromethyl)bicyclo[1.1.1]pentan-1-yl)benzamide] | 0.518
CS(=O)(=O)Nc1cc(F)ccc1C(=O)NC12C3C4C5C3C1C5C42 (stereo not drawn) [Example 139, N-(cuban-1-yl)-4-fluoro-2-(methylsulfonamido)benzamide] | 23.7
CS(=O)(=O)Nc1ccc(SC(F)(F)F)cc1C(=O)NC12CC(C#N)(C1)C2 [Example 243, N-(3-cyanobicyclo[1.1.1]pentan-1-yl)-2-(methylsulfonamido)-5-((trifluoromethyl)thio)benzamide] | 6.14
CCCS(=O)(=O)Nc1ccc(C(F)(F)F)cc1C(=O)NC12CCC(C#N)(CC1)CC2 [Example 126, N-(4-cyanobicyclo[2.2.2]octan-1-yl)-2-(propylsulfonamido)-5-(trifluoromethyl)benzamide] | 5.12
CS(=O)(=O)N1C2CCC1CC(NC(=O)c1ccc(Cl)cc1NS(=O)(=O)CCC(F)(F)F)C2 (stereo not drawn) [Example 218, 4-chloro-N-(8-(methylsulfonyl)-8-azabicyclo[3.2.1]octan-3-yl)-2-((3,3,3-trifluoropropyl)sulfonamido)benzamide] | 53.4
N#CC12CCC(NC(=O)c3cc(C(F)(F)F)ccc3NS(=O)(=O)N3CCOCC3)(CC1)CC2 [Example 178, N-(4-cyanobicyclo[2.2.2]octan-1-yl)-2-(morpholine-4-sulfonamido)-5-(trifluoromethyl)benzamide] | 5.93
CS(=O)(=O)Nc1cc(S(F)(F)(F)(F)F)ccc1C(=O)NC12CC(C(F)(F)F)(C1)C2 [Example 146, 2-(methylsulfonamido)-4-(pentafluoro-λ^6-sulfanyl)-N-(3-(trifluoromethyl)bicyclo[1.1.1]pentan-1-yl)benzamide] | 0.677

— patent US12049439B2 (OrsoBio, Inc., priority 2018, dated 2024)
